Experimental data from PubChem BioAssay (NCI).
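Protocol summary: plate cells (96-well), add compound at 5 concentrations, incubate 48 h, interpolate endpoints linearly. GI50 = concentration required for 50% inhibition of growth. TGI: concentration producing complete growth inhibition.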

Assays:
Experiment in all cases: NCI tumour cell line growth inhibition, 48 h
[1] = test system: 786-0 renal
[2] = test system: A498 renal
[3] = test system: A549 NSCLC
[4] = test system: ACHN renal
[5] = test system: BT-549 breast
[6] = test system: CAKI-1 renal
[7] = test system: CCRF-CEM leukemia
[8] = test system: DU-145 prostate
[9] = test system: EKVX NSCLC
[10] = test system: HCC-2998 colon
[11] = test system: HCT-116 colon
[12] = test system: HCT-15 colon
[13] = test system: HOP-62 NSCLC
[14] = test system: HOP-92 NSCLC
[15] = test system: HS 578T breast
[16] = test system: HT29 colon
[17] = test system: IGROV1 ovarian
[18] = test system: K-562 leukemia
[19] = test system: KM12 colon
[20] = test system: LOX IMVI melanoma
[21] = test system: M14 melanoma
[22] = test system: MALME-3M melanoma
[23] = test system: MCF7 breast
[24] = test system: MDA-MB-231 breast
[25] = test system: MDA-MB-435
[26] = test system: NCI-H226 lung
[27] = test system: NCI-H23 lung
[28] = test system: NCI-H460 lung
[29] = test system: NCI-H522 lung
[30] = test system: NCI/ADR-RES ovarian
[31] = test system: OVCAR-3 ovarian
[32] = test system: OVCAR-4 ovarian
[33] = test system: OVCAR-5 ovarian
[34] = test system: OVCAR-8 ovarian
[35] = test system: PC-3 prostate
[36] = test system: RPMI-8226 leukemia
[37] = test system: RXF 393 renal
[38] = test system: SF-268 CNS
[39] = test system: SF-295 CNS
[40] = test system: SF-539 CNS
[41] = test system: SK-MEL-2 melanoma
[42] = test system: SK-MEL-28 melanoma
[43] = test system: SK-MEL-5 melanoma
[44] = test system: SN12C renal
[45] = test system: SNB-19 CNS
[46] = test system: SNB-75 CNS
[47] = test system: SR leukemia
[48] = test system: SW-620 colon
[49] = test system: T-47D breast
[50] = test system: TK-10 renal
[51] = test system: UACC-257 melanoma
[52] = test system: UACC-62 melanoma
[53] = test system: UO-31 renal

Compound: O=c1c2cc(F)ccc2sc2c(NCCCNCCO)nc3ccc(F)cc3c12
- GI50 [1]: 1630 nM
- TGI [1]: 3320 nM
- GI50 [2]: 2240 nM
- TGI [2]: 7210 nM
- GI50 [3]: 1920 nM
- TGI [3]: 4400 nM
- GI50 [4]: 1540 nM
- TGI [4]: 2890 nM
- GI50 [5]: 11100 nM
- TGI [5]: 26700 nM
- GI50 [6]: 1530 nM
- TGI [6]: 2970 nM
- GI50 [7]: 2240 nM
- TGI [7]: 5080 nM
- GI50 [8]: 1760 nM
- TGI [8]: 3190 nM
- GI50 [9]: 1520 nM
- TGI [9]: 3070 nM
- GI50 [10]: 1640 nM
- TGI [10]: 3180 nM
- GI50 [11]: 1840 nM
- TGI [11]: 3630 nM
- GI50 [12]: 1490 nM
- TGI [12]: 2910 nM
- GI50 [13]: 1610 nM
- TGI [13]: 3530 nM
- GI50 [14]: 1310 nM
- TGI [14]: 5200 nM
- GI50 [15]: 1790 nM
- TGI [15]: 4100 nM
- GI50 [16]: 1820 nM
- TGI [16]: 3740 nM
- GI50 [17]: 1250 nM
- TGI [17]: 2650 nM
- GI50 [18]: 2340 nM
- TGI [18]: 6680 nM
- GI50 [19]: 1840 nM
- TGI [19]: 3580 nM
- GI50 [20]: 1570 nM
- TGI [20]: 3060 nM
- GI50 [21]: 1850 nM
- TGI [21]: 3670 nM
- GI50 [22]: 1630 nM
- TGI [22]: 3150 nM
- GI50 [23]: 1620 nM
- TGI [23]: 3200 nM
- GI50 [24]: 1450 nM
- TGI [24]: 2880 nM
- GI50 [25]: 1710 nM
- TGI [25]: 3200 nM
- GI50 [26]: 1760 nM
- TGI [26]: 3520 nM
- GI50 [27]: 1810 nM
- TGI [27]: 3280 nM
- GI50 [28]: 1630 nM
- TGI [28]: 3240 nM
- GI50 [29]: 1910 nM
- TGI [29]: 4030 nM
- GI50 [30]: 1670 nM
- TGI [30]: 3220 nM
- GI50 [31]: 1780 nM
- TGI [31]: 3380 nM
- GI50 [32]: 2030 nM
- TGI [32]: 4430 nM
- GI50 [33]: 1620 nM
- TGI [33]: 3040 nM
- GI50 [34]: 2090 nM
- TGI [34]: 4750 nM
- GI50 [35]: 1670 nM
- TGI [35]: 3300 nM
- GI50 [36]: 2300 nM
- TGI [36]: 5100 nM
- GI50 [37]: 1510 nM
- TGI [37]: 2950 nM
- GI50 [38]: 1570 nM
- TGI [38]: 3220 nM
- GI50 [39]: 1770 nM
- TGI [39]: 3230 nM
- GI50 [40]: 1680 nM
- TGI [40]: 3120 nM
- GI50 [41]: 2040 nM
- TGI [41]: 4340 nM
- GI50 [42]: 1780 nM
- TGI [42]: 3250 nM
- GI50 [43]: 1700 nM
- TGI [43]: 3150 nM
- GI50 [44]: 1580 nM
- TGI [44]: 3050 nM
- GI50 [45]: 1720 nM
- TGI [45]: 3290 nM
- GI50 [46]: 1510 nM
- TGI [46]: 3270 nM
- GI50 [47]: 3410 nM
- TGI [47]: > 100000 nM
- GI50 [48]: 1730 nM
- TGI [48]: 3480 nM
- GI50 [49]: 1940 nM
- TGI [49]: 4480 nM
- GI50 [50]: 1900 nM
- TGI [50]: 3700 nM
- GI50 [51]: 1980 nM
- TGI [51]: 4030 nM
- GI50 [52]: 1720 nM
- TGI [52]: 3250 nM
- GI50 [53]: 1110 nM
- TGI [53]: 2370 nM
